Source: patent US7875436B2 (priority 2004, dated 2011)
Entries after “also recorded” stand apart in the source; their conditions may differ.

Experiments:
BoNTA [1] = biological target: T1, BoNTA (Clostridium botulinum, UniProt P0DPI1)
Target sequence in this assay (P0DPI1 2-448 limits assumed): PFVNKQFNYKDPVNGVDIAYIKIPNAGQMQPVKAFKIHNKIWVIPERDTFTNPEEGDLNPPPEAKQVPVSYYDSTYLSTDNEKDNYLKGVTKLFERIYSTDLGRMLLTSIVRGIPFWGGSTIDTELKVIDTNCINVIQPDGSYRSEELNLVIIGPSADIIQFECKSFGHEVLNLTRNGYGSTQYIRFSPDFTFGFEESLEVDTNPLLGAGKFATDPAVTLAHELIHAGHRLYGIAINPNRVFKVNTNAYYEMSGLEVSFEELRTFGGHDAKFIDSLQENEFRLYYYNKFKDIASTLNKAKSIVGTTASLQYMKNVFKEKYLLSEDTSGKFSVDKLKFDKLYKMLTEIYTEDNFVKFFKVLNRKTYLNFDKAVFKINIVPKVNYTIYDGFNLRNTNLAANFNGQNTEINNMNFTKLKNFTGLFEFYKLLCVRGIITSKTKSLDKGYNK

BoNTA [2] = biological target: T1, BoNTA; remark: listed apart in the source
Target sequence in this assay (P0DPI1 whole entry, looked up): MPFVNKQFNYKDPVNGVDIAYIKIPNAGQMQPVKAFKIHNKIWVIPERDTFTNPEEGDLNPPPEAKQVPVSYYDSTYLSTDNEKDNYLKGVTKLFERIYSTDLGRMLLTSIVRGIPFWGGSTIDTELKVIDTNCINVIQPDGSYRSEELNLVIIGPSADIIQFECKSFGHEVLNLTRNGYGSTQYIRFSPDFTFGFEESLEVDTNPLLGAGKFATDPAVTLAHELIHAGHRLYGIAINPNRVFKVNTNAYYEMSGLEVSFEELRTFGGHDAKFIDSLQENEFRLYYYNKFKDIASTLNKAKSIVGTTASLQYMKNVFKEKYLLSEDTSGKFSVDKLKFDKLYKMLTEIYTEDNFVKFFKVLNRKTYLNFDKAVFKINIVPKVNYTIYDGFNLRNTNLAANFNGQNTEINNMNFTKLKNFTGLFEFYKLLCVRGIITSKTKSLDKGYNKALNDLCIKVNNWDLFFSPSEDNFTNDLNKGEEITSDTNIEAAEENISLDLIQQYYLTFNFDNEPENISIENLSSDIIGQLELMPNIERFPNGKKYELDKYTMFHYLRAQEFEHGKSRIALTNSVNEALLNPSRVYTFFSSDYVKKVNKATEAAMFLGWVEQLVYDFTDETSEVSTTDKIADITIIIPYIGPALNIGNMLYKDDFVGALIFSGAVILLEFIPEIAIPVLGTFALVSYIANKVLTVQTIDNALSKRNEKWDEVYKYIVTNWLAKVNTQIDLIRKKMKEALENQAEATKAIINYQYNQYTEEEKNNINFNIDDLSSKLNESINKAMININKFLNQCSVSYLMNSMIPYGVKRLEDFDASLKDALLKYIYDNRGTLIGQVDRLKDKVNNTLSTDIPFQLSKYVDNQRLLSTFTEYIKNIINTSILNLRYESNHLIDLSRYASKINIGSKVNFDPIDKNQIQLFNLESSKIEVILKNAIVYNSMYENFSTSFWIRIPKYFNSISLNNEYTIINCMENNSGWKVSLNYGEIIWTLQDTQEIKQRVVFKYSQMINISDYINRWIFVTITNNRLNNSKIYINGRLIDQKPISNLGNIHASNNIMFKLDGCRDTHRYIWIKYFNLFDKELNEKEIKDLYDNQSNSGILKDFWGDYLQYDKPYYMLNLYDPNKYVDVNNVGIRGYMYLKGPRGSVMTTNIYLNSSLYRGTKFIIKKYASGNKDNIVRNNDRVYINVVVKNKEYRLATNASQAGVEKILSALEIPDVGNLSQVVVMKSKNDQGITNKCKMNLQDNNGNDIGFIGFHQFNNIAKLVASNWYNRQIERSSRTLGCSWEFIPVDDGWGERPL

BoNTA [3] = biological target: T1, BoNTA; remark: listed apart in the source
Target sequence in this assay (P0DPI1 whole entry, looked up): as above

## Ac IIGNLRHMALDMGNEIDTQNRQIDRIMEKADSNKTRIDEAN Nop R A Pya K Nle L NH2 [Substrate S9]
BoNTA [1]; pH 7.4
  BoNT/A concentration that can be quantified: 0.2 ng/mL
BoNTA [2]
  parameters (Km, kcat, Vmax) for the hydrolysis, compared with SNAP 25: more favorable than for SNAP 25; also recorded: better than those reported for SNAP 25 itself and other substrates reported to date
BoNTA [3]
  metabolites formed on cleavage by BoNTA: only two metabolites formed

## Ac-S-N-K-T-R-I-D-E-A-N-Pya-R-A-Nop-K-Nle-L-NH2 [Pya^197Nop^200(187-203)SNAP25]
BoNTA [1]
  cleavage by the toxin BoNT/A: weakly cleaved

## ethylene diamine tetracetate [EDTA]
BoNTA [1]
  effect on fluorescence emitted by degradation of substrate S1 by BoNT/A (enzymatic activity): inhibition of the fluorescence
